*1 amine or outer side, *2 acyl side, *3 side chain or, on linkers, in order; H or OH if unused. Where a SMILES comes first, the peptide text is derived from it. [ ]: non-standard residue; d: D form. The star is where a group is joined. Nle(5E-ene,6-CO2Et) = CCOC(=O)/C=C/CC[C@H](N)C(=O)O; X7 = O=C(/C=C/CC[C@H](N[*:1])C(=O)[*:2])OCc1ccccc1; Tic = O=C(O)[C@@H]1Cc2ccccc2CN1; Cbz = O=C(OCc1ccccc1)*

In the first test the target is T1, recombinant human tissue transglutaminase (His6-rh-TG2) (Homo sapiens, UniProt P21980).
T1 sequence (P21980 1-687): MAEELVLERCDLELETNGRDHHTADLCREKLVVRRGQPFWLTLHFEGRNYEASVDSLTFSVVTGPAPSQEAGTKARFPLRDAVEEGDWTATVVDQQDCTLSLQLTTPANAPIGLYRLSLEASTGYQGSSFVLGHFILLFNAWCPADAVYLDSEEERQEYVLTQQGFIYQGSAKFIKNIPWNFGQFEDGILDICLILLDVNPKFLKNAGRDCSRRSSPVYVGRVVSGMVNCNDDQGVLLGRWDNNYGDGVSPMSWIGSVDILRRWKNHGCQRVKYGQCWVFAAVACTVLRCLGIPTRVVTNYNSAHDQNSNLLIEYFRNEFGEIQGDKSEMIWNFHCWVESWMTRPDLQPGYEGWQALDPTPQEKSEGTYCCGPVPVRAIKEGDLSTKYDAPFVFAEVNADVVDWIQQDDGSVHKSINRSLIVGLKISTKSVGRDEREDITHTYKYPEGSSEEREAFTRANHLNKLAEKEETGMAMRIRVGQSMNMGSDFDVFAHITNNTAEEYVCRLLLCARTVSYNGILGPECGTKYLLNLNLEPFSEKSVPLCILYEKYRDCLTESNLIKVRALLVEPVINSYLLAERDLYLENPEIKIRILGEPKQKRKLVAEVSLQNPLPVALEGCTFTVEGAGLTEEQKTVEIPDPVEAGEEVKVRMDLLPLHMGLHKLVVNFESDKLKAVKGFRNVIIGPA
In words: Inactivation of human tissue transglutaminase, fluorescence assay, IC50. Type of test: biochemical. Conditions: Table 1; 5 min preincubation, 37° C. The method, then: 250 μg of lyophilized his-tagged recombinant human tissue transglutaminase (His6-rh-TG2) are reconstituted by the addition of 150 μl of water (resulting buffer 50 mM of NaH2PO4, 150 mM of NaCl, pH=8).
A 10 mM inhibitor stock solution in DMSO is prepared and diluted with buffer (50 mM of Tris-HCl, 10 mM of CaCl2, 5 mM of DTT, pH=7.5, respectively) to the 20-fold of the concentration desired for the inhibition mixture (at least 1/50 dilution resulting in 2% DMSO concentration).
900 μl of an assay solution composed of 55.56 mM of Tris, 11.11 mM of CaCl2, 0.11% PEG8000, 5.56 mM of DTT, 5.56 mM of glycine methyl ester and 50 μM of Abz-APE(CAD-DNP)QEA-OH, (patent number:), pH=7.5 are placed in a cuvette and brought to a temperature of 37° C. in the measuring cell of a spectrophotometer. 50 μl of the respective inhibitor solution are added to said solution (resulting in a concentration of less than 0.2% of DMSO in the mixture).
7 μl of the transglutaminase solution reconstituted above are diluted with 51 μl of buffer (50 mM of Tris, 100 mM of NaCl, 5 mM of DTT, pH=7.5). 50 μl of said enzyme solution (10 μg His6-rhTG2) are added to the assay solution containing the respective inhibitor concentration. The mixture is incubated for 5 min at 37° C. before the measurement is performed. λexc=313 nm and λem=418 nm, 15 min)
The resulting enzyme activity was measured by analyzing the slope of the straight line obtained by the increase in fluorescence.
DMSO is used instead of inhibitor stock solution in order to determine the non-inhibited enzyme activity. IC50 values are determined by plotting the resulting enzyme activity against the logarithm of the inhibitor concentration. IC50 is defined as the concentration of an inhibitor at which enzyme activity is reduced to 50% after 5 min of preincubation.
`CCOC(=O)C=CC(=O)CC[C@H](NC(=O)OCc1ccccc1)C(=O)N[C@H](C(=O)N1CCC[C@H]1C(=O)N[C@@H](CC(C)C)C(=O)OC)C(C)C` [Compound 9, N^α-benzyloxycarbonyl-{[L-7-amino-4-oxo-oct-2-ene-dicarboxylic acid]-1-ethanoyl}-L-valinyl-L-prolinyl-leucine methyl ester]: the IC50 came out at 18000 nM.
Consider `COC(=O)/C=C/CC[C@H](NC(C)=O)C(=O)N[C@@H](CCC(N)=O)C(=O)N[C@@H](CCC(=O)O)C(=O)N[C@@H](C)C(=O)OC` [Compound 10, N^α-Acetyl-{[(E)-(L)-6-amino-hept-2-ene-dicarboxylic acid]-1-methanoyl}-L-glutaminyl-L-glutamyl-L-alanine methyl ester], for which the IC50 is 330 nM.
Take `COC(=O)/C=C/CC[C@H](NC(C)=O)C(=O)N[C@@H](CCC(N)=O)C(=O)N[C@@H](CCC(=O)O)C(=O)OC` [Compound 11, N^α-acetyl-{[(E)-(L)-6-amino-hept-2-ene-dicarboxylic acid]-1-methanoyl}-L-glutaminyl-L-glutamyl methyl ester]: the IC50 was 2100 nM.
On the same count and under the same terms, the figure for `COC(=O)/C=C/CC[C@H](NC(=O)OCc1ccccc1)C(=O)N[C@@H](Cc1ccccc1)C(=O)N1CCC[C@H]1C(=O)N[C@@H](CC(C)C)C(=O)OC` [Compound 13, N^α-benzyloxycarbonyl-{[(E)-(L)-6-amino-hept-2-enedicarboxylic acid]-1-methanoyl}-L-phenylalaninyl-L-prolinyl-L-leucine methyl ester] is 1500 nM.
The same measure, in the same setting: the figure for `COC(=O)/C=C/CC[C@H](NC(C)=O)C(=O)N[C@@H](Cc1ccc(F)cc1)C(=O)N1CCC[C@H]1C(=O)N[C@@H](CC(C)C)C(=O)OC` [Compound 14, N^α-acetyl-{[(E)-(L)-6-amino-hept-2-ene-dicarboxylic acid]-1-methanoyl}-L-(p-fluoro)-phenylalaninyl-L-prolinyl-L-leucine methyl ester] is 1100 nM; for `COC(=O)/C=C/CC[C@H](NC(=O)OCc1ccccc1)C(=O)N[C@@H](Cc1ccc(F)cc1)C(=O)N1CCC[C@H]1C(=O)N[C@@H](CC(C)C)C(=O)OC` [Compound 15, N^α-benzyloxycarbonyl-{[(E)-(L)-6-amino-hept-2-ene-dicarboxylic acid]-1-methanoyl}-L-(p-fluoro)-phenylalaninyl-L-prolinyl-L-leucine methyl ester] it is 880 nM.
Same read-out and setting: to `CCOC(=O)/C=C/CC[C@H](NC(=O)OCc1ccccc1)C(=O)N[C@@H](CCC(N)=O)C(=O)N1CCC[C@H]1C(=O)N[C@@H](Cc1ccc(O)cc1)C(=O)OC` [Compound 19, N^α-benzyloxycarbonyl-{[(E)-(L)-6-amino-hept-2-ene-dicarboxylic acid]-1-ethanoyl}-L-glutaminyl-L-proline-L-tyrosine methyl ester] (Cbz-[Nle(5E-ene,6-CO2Et)]QPY-OMe) belongs 2400 nM; to `CCOC(=O)/C=C/CC[C@H](NC(=O)OCc1ccccc1)C(=O)N[C@@H](CCC(N)=O)C(=O)N1CCC[C@H]1C(=O)N[C@@H](CC(C)C)C(=O)OC` [Compound 20, N^α-benzyloxycarbonyl-{[(E)-(L)-6-amino-hept-2-ene-dicarboxylic acid]-1-ethanoyl}-L-glutaminyl-L-prolinyl-L-leucine methyl ester] (Cbz-[Nle(5E-ene,6-CO2Et)]QPL-OMe), 2000 nM.
For the compound `CCOC(=O)C=CC(=O)CC[C@H](NC(C)=O)C(=O)N[C@@H](CCC(N)=O)C(=O)N1CCC[C@H]1C(=O)N[C@@H](CC(C)C)C(=O)OC` [Compound 22, N^α-acetyl-{[L-7-Amino-4-oxo-oct-2-ene-dicarboxylic acid]-1-ethanoyl}-L-glutaminyl-L-prolinyl-L-leucine methyl ester], the IC50 stood at 70 nM.
In the case of `COC(=O)[C@H](CC(C)C)NC(=O)[C@@H]1Cc2ccccc2CN1C(=O)[C@H](CCC(N)=O)NC(=O)[C@H](CC/C=C/C(=O)OCc1ccccc1)NC(=O)[C@@H]1CCCN1C(=O)[C@H](CCC(N)=O)NC(=O)[C@@H]1CCCN1C(=O)OCc1ccccc1` [Compound 41] (Cbz-PQP[X7]Q[Tic]L-OMe), the IC50 amounted to 215 nM.
The same measure, in the same setting: to `CC(=O)NCCC(=O)N1CCCC(C(=O)C(CC/C=C/C(=O)OC(C)C)N2Cc3nc[nH]c3CC2C(=O)NC(CNC(N)=O)C(=O)NC(CC(C)C)C(=O)N2CCCC2C(=O)NC(Cc2ccc(Oc3ccc(O)cc3)cc2)C(=O)O)C1` (centres unmarked) [Compound 42] belongs 4000 nM.
The same measure, in the same setting: the figure for “N^α-(2-fluorobenzoyl)-{[L-7-amino-4-oxo-oct-2-ene-dicarboxylic acid]-1-methanoyl}-L-valinyl-L-4-fluoroprolinyl-leucine isopropyl ester [Compound 24]” is 8000 nM; for “N^α-(5-methylisoxazol-3-carbonyl)-{[L-7-amino-4-oxo-oct-2-ene-dicarboxylic acid]-1-isopropanoyl}-L-valinyl-L-prolinyl-leucine methyl ester [Compound 23]” it is 56 nM.
Same read-out and setting: the figure for “N^α-acetyl-{[(E)-(L)-6-Amino-hept-2-ene dicarboxylic acid]-1-methanoyl}-L-phenylalaninyl-L-prolinyl-L-leucine methyl ester [Compound 12]” is 1800 nM.
Turning to “N^α-benzyloxycarbonyl-{[(E)-(L)-6-amino-hept-2-ene-dicarboxylic acid]-1-ethanoyl}-L-leucinyl-L-prolinyl-L-glutamine methyl ester [Compound 21]”, the IC50 was determined as 3200 nM.
On the same count and under the same terms, the figure for “[(E)-(L)-6-(2-Oxo-pyrrolidon-1-yl)hept-2-ene-dicarboxylic acid 1-ethanoyl]-L-valinyl-L-homoprolinyl-L-leucine methyl ester [Compound 16]” is 22000 nM.
Same read-out and setting: the figure for “[(E)-(L)-6-(2-oxo-pyrrolidon-1-yl)-hept-2-ene-dicarboxylic acid-1-ethanoyl]-L-cyclohexylglycinyl-L-homoprolinyl-L-leucine methyl ester [Compound 17]” is 35000 nM; for “[(E)-(L)-6-(2-oxo-pyrrolidon-1-yl)-hept-2-ene-dicarboxylic acid-1-ethanoyl]-L-cyclohexylglycinyl-L-prolinyl-L-leucine methyl ester [Compound 18]” it is 28000 nM.

The same test, now with this note: Table 2; 5 min preincubation, 37° C.
For `COC(=O)C(CC(C)C)NC(=O)C1CCCN1C(=O)C(CCC(N)=O)NC(=O)C(CCC=CC#N)NC(=O)OCc1ccccc1` [Compound 3.2.11, N^α-benzyloxycarbonyl)-[(Z)-(L)-2-amino-6-cyano-hex-5-ene-dicarboxylic acid]-L-glutaminyl-L-prolinyl-L-leucine methyl ester], the IC50 turned out to be 43000 nM.
On the same count and under the same terms, the figure for “N^α-benzyloxycarbonyl)-[(Z)-(L)-2-amino-7-oxo-oct-5-ene-dicarboxylic acid]-L-glutaminyl-L-prolinyl-L-leucine methyl ester [Compound 3.2.10]” is 56000 nM.

Source of the values: patent publication US8471063B2, “Michael systems as transglutaminase inhibitors” (Zedira GmbH, priority 2006, dated 2013).
